Earlier results on one compound are cited in patent US20070203140A1, “N-hydroxyguanidines as modulators of indoleamine 2,3-dioxygenase” (priority 2006, published 2007).

One data set deals with LLC tumors. As to conditions: LLC tumors in C57B1/6 mice, versus placebo.
The subject of a further data set is P815 tumor. To be noted: pre-immunized immune-competent mice.

As for `Cn1cc(C[C@H](N)C(=O)O)c2ccccc21` [Example 1-MT, 1-methyl-tryptophan], the formation of tumors result with LLC tumors is given as “markedly delayed”. The growth of tumors result in the data set on P815 tumor is “inhibited”.
